Measurements published in patent US6808877B2, “Ligands for FPR class receptors that induce a host immune response to a pathogen or inhibit HIV infection” (priority 2000, dated 2004).

Legend:
monocytes [1] = assay: Monocyte migration in response to MIP-1β after pretreatment; format: cell-based, human; settings: fMLP 10^−6 M, 37° C.
Description: Monocyte migration was assessed by a 48-well micro-chemotaxis chamber technique. 25 μl MIP-1β diluted in assay medium (RPMI 1640 with 1% BSA and 25 mM Hepes) was placed in the lower compartment of the chemotaxis chamber. 50 μl cell suspension (1×10^6 cell/ml) was placed in the upper compartment of the chamber. The upper and lower compartments were separated by a polycarbonate filter (5 μm pore-size, Neuroprobe, Cabin John, Md.). The chamber was incubated at 37° C. for 90 min in humidified air with 5% CO2. At the end of the incubation, the filter was removed, fixed and stained with Diff-Quik (Harlew, Gibbstown, N.J.). The migrated cells in three high-powered fields (HPF) obtained in triplicates (400×) were counted by light microscopy after coding the samples. The results are expressed as the net mean (±SD) number of migrated cells in 3 HPF after subtraction of spontaneous migration. At least three experiments were performed with same results.

neutrophils [2] = assay: Ca2+ mobilization in neutrophils (Fura-2); format: cell-based, human
Description: (§1) Calcium mobilization was measured by incubating 2×10^7/ml cells in loading medium (DMEM, 10% FBS) with 5 μM Fura-2 AM (Molecular Probes, Eugene, Oreg.) for 30 min at room temperature in the dark. The dye-loaded cells were washed 3 times with loading medium and resuspended in saline buffer [138 mM NaCl, 6 mM KCl, 1 mM CaCl2, 10 mM HEPES (pH 7.4), 5 mM Glucose, 0.1% BSA] at a concentration of 1×10^6/ml. The cells were then transferred into quartz cuvettes (2 ml) which were placed in a luminescence spectrometer (LS-50B, Perkin-Elmer, Beaconsfield, England). Stimulants at different concentrations were added in a volume of 20 μl to each cuvette at the indicated time points. The ratio of fluorescence at 340 and 380 nm wavelength was calculated using a FL WinLab program (Perkin-Elmer).
Calcium mobilization was assayed by incubating 2×10^7/ml of monocytes, neutrophils, FPRL1 or FPR transfectants in loading buffer containing 138 mM NaCl, 6 mM KCl, 1 mM CaCl2, 10 mM HEPES (pH 7.4), 5 mM glucose, 0.1% BSA with 5 μM Fura-2 (Sigma) at 37° C. for 30 min. The dye-loaded cells were washed and resuspended in fresh loading buffer. The cells were then transferred into quartz cuvettes (10^6 cells in 2 ml) which were placed in a luminescence spectrometer LS50 B (Perkin-Elmer Limited, Beaconsfield, England). Stimulants at different concentrations were added in a volume of 20 μl to the cuvettes at indicated time points. The ratio of fluorescence at 340 and 380 nm wavelength was calculated using the FL WinLab program (Perkin-Elmer).

HIVJRFL = format: cell-based, HIV-1; settings: peripheral blood monocyte/macrophages
[3] = system: monocyte tropic strains of HIV-1; format: cell-based; settings: FPR-transfected HOS cells
CCR5 = format: cell-based, human; settings: HOS/CD4/CCR5 cells co-expressing FPR
monocytes [4] = assay: Ca2+ mobilization of monocytes in response to chemokines after preincubation (heterologous desensitization); format: cell-based, human; settings: 60 min, 37° C.
Description: Calcium mobilization was measured by incubating monocytes (2×10^7/ml) in loading medium (DMEM, 10% FCS) with 5 μM Fura-2 AM (Molecular Probes, Eugene, Oreg.) for 30 min at room temperature in the dark. The dye-loaded cells were washed 3 times and resuspended in saline buffer (138 mM NaCl, 6 mM KCl, 1 mM CaCl2, 10 mM Hepes pH 7.4, 5 mM glucose, 0.1% BSA). The cells were then transferred into quartz cuvettes (2×10^6 cells in 2 ml) which were placed in a luminescence spectrometer (LS-50B, Perkin-Elmer, Beaconsfield, UK). Stimulants at different concentrations were added in a volume of 20 μl to each cuvette at the indicated time points. The ratio of fluorescence at 340 and 380 nm was calculated using a FL-WinLab program (Perkin Elmer). To examine the effect of fMLP, monocytes were preincubated with 10^−6 M fMLP or with medium alone for 60 min at 37° C. The cells were thoroughly washed and then were stained with Fura-2 for the calcium mobilization desensitization. The results are representative of at least three experiments performed.
as §1

[5] = system: parental or mock transfected cells; assay: Ca2+ mobilization in parental or mock transfected rat basophil cell line and HEK 293 cells; format: cell-based
HIV-1BAL-env [6] = format: cell-based; settings: HOS/CD4/CCR5 cells co-expressing FPR
macrophages = settings: compared to cells treated with medium alone
HIV-1BAL-env [7] = assay: HIV-1 env fusion with human blood monocytes; format: cell-based
monocytes [8] = assay: Monocyte chemotaxis, 48-well micro-chemotaxis chamber; format: cell-based, human; settings: human monocytes
FPR = molecular target: T1, FPR (Homo sapiens, UniProt P21462); assay: Migration of ETFR cells; format: cell-based; settings: ETFR cells (overexpressing FPR)
T1 construct: H. Ali and R. Snyderman (Duke University); host or cells: RBL-2H3 rat basophilic leukemia cells
T1 sequence (P21462 1-350): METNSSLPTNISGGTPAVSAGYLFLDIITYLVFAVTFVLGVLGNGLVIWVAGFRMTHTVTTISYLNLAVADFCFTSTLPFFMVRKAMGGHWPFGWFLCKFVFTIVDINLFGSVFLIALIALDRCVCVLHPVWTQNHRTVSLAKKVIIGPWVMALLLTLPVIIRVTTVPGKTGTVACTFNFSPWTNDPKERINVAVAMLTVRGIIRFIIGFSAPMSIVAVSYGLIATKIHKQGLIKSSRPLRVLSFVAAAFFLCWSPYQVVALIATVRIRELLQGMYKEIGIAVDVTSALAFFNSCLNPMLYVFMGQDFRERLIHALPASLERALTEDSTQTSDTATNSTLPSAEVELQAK

CXCR4 = CXCR4 (Homo sapiens, UniProt P61073); assay: Interaction with CXCR4
T lymphocytes = assay: T lymphocyte chemotaxis; format: cell-based, human
neutrophils [9] = assay: Neutrophil chemotaxis, 48-well micro-chemotaxis chamber; format: cell-based; settings: human neutrophils

Chain of CXCR4 (P61073 whole entry): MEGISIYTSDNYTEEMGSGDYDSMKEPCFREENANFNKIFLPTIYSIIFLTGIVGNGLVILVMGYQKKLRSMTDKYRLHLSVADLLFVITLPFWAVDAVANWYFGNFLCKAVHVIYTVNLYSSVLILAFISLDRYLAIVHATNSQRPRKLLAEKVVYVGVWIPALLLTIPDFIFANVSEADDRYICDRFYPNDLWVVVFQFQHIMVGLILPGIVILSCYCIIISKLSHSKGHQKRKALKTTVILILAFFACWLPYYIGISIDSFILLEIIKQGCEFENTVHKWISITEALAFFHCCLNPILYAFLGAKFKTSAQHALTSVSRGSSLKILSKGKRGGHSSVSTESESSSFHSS

## CSCC[C@H](NC=O)C(=O)N[C@@H](CC(C)C)C(=O)N[C@@H](Cc1ccccc1)C(=O)O [fMLP, N-formyl-methionyl-leucyl-phenylalanine]
Monocytes [1]
  chemotactic response to MIP-1β after pretreatment: progressively reduced chemotactic response
Neutrophils [2]; concentrations in the micromolar range
  response to W peptide (Ca2+ flux): significantly attenuated
Neutrophils [2]; high concentration of fMLP (1 μM), V3 1.5 μM
  signaling of V3 peptide on cross-desensitization: attenuated
Neutrophils [2]; low concentrations (nM range)
  effect on W peptide-induced Ca2+ flux: limited effect
HIVJRFL
  fusion and infection, syncytia formation and p24 production: significantly reduced the fusion and infection
[3]
  fusion and infection, syncytia formation and p24 production: significantly reduced the fusion and infection
CCR5
  phosphorylation of CCR5: induced an increase in phosphorylation of CCR5
Monocytes [4]; fMLP 10^−6 M
  Ca2+ flux in response to RANTES and MIP-1α after pretreatment: reduced Ca^2+ flux
[5]
  Ca2+ mobilization: did not induce Ca^2+ mobilization
HIV-1BAL-env [6]
  HIV-1BAL-env-mediated fusion: markedly inhibited
macrophages
  viability of macrophages: did not affect the viability of macrophages
HIV-1BAL-env [7]
  HIV-1 env fusion: inhibition of HIV-1 env fusion with blood monocytes

## TRPNYNKRKRIHIGPGRAFYTTKNIIGTIRQAH-NH2 [V3 peptide]
Neutrophils [2]
  Ca2+ mobilization: mobilized Ca^2+
Monocytes [8]
  chemotactic activity / migration: potent chemoattractant
Monocytes [4]; 1.5 μM
  cell response (Ca2+) to MCP-1 and fMLP after preincubation: minimally affected
  cell response (Ca2+) to RANTES and SDF-1α after preincubation: significantly reduced
FPR
  migration / chemotaxis: low level of chemotaxis response
CXCR4
  interaction with CXCR4: did not interact with CXCR4
T lymphocytes
  chemotactic activity: weak chemoattractant
Neutrophils [9]
  chemotactic activity / migration: potent chemoattractant
